In PMC5605198, “MELK is not necessary for the proliferation of basal-like breast cancer cells” (eLife, 2017):
pIC50: −log10 of the molar value. Like-named read-outs stand apart in the source and are kept apart here.

Columns and labels:
MELK = MELK (Homo sapiens, UniProt Q14680); experiment: ICKP radiometric kinase assay; format: biochemical; details: for remaining activity at 1 µM: read-out: % AR (% kinase activity remaining)
MKK2 = MKK2 (Homo sapiens, UniProt P36507); experiment: ICKP radiometric kinase assay; format: biochemical; details: read-out: % AR (% kinase activity remaining)
MKK2, sequence (P36507 whole entry): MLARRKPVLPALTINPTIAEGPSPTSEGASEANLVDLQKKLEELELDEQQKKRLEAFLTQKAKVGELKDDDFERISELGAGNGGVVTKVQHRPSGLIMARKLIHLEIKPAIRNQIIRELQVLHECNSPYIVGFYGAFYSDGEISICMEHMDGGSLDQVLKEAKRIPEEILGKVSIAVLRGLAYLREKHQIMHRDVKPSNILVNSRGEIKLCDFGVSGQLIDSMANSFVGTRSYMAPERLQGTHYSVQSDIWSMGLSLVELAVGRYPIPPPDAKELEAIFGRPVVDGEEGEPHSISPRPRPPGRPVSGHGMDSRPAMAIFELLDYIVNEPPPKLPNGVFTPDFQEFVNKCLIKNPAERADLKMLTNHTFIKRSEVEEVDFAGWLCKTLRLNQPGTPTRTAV

MLK1 = MLK1 (Homo sapiens, UniProt P80192); experiment: ICKP radiometric kinase assay; format: biochemical; details: read-out: % AR (% kinase activity remaining)
MAPKAP-K3 = MAPKAP-K3 (Homo sapiens, UniProt Q16644); experiment: ICKP radiometric kinase assay; format: biochemical; details: read-out: % AR (% kinase activity remaining)
NUAK1 = NUAK1 (Homo sapiens, UniProt O60285); experiment: ICKP radiometric kinase assay; format: biochemical; details: read-out: % AR (% kinase activity remaining)
MST4 = MST4 (Homo sapiens, UniProt Q9P289); experiment: ICKP radiometric kinase assay; format: biochemical; details: read-out: % AR (% kinase activity remaining)
TAO1 = TAO1 (Homo sapiens, UniProt Q7L7X3); experiment: ICKP radiometric kinase assay; format: biochemical; details: read-out: % AR (% kinase activity remaining)
MKK6 = MKK6 (Homo sapiens, UniProt P52564); experiment: ICKP radiometric kinase assay; format: biochemical; details: read-out: % AR (% kinase activity remaining)
PKB alpha = PKB alpha (Homo sapiens, UniProt P31749); experiment: ICKP radiometric kinase assay; format: biochemical; details: read-out: % AR (% kinase activity remaining)
MARK4 = MARK4 (Homo sapiens, UniProt Q96L34); experiment: ICKP radiometric kinase assay; format: biochemical; details: read-out: % AR (% kinase activity remaining)
PRK2 = PRK2 (Homo sapiens, UniProt Q16513); experiment: ICKP radiometric kinase assay; format: biochemical; details: read-out: % AR (% kinase activity remaining)
EIF2AK3 = EIF2AK3 (Homo sapiens, UniProt Q9NZJ5); experiment: ICKP radiometric kinase assay; format: biochemical; details: read-out: % AR (% kinase activity remaining)
MARK3 = MARK3 (Homo sapiens, UniProt P27448); experiment: ICKP radiometric kinase assay; format: biochemical; details: read-out: % AR (% kinase activity remaining)
MARK3, sequence (P27448 whole entry): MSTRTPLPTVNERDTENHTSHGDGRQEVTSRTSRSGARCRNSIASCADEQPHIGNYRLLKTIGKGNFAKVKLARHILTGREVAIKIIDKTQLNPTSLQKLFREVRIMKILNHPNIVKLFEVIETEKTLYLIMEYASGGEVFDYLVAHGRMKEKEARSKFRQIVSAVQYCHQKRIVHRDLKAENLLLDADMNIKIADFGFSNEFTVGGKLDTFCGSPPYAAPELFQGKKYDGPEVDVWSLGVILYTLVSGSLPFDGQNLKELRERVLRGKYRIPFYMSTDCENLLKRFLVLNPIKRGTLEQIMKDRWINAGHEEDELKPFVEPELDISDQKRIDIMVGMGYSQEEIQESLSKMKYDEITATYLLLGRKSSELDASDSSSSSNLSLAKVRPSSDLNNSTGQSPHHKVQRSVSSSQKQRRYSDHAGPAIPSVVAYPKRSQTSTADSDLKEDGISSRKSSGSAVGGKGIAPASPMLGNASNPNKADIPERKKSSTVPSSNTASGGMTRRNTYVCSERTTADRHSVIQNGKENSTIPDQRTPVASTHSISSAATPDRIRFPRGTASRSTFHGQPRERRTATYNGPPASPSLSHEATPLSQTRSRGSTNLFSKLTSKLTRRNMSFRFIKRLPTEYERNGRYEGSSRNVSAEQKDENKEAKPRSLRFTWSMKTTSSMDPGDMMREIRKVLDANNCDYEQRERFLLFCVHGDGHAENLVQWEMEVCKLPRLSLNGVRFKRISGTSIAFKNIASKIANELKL

CK1 delta = CK1 delta (Homo sapiens, UniProt P48730); experiment: ICKP radiometric kinase assay; format: biochemical; details: read-out: % AR (% kinase activity remaining)
MAP4K5 = MAP4K5 (Homo sapiens, UniProt Q9Y4K4); experiment: ICKP radiometric kinase assay; format: biochemical; details: read-out: % AR (% kinase activity remaining)
HCC70 = experiment: Cell proliferation assay (CellTiter-Glo); details: Homo sapiens
PLK1 = PLK1 (Homo sapiens, UniProt P53350); experiment: ICKP radiometric kinase assay; format: biochemical; details: read-out: % AR (% kinase activity remaining)
JNK2 = JNK2 (Homo sapiens, UniProt P45984); experiment: ICKP radiometric kinase assay; format: biochemical; details: read-out: % AR (% kinase activity remaining)
JNK2, sequence (P45984 whole entry): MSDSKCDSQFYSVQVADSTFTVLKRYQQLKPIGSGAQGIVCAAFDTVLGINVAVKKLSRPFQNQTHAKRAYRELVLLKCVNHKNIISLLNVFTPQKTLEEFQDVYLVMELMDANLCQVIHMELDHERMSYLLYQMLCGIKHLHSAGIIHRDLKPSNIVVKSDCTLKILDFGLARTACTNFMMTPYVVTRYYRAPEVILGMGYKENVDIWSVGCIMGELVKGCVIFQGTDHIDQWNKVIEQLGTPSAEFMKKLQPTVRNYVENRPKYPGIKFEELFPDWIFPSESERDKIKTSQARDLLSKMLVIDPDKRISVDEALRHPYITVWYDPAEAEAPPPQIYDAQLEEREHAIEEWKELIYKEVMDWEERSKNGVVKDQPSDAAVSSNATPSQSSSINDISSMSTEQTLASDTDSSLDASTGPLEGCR

[1] = system: MDA-MB-468 (second source); experiment: Cell proliferation assay (CellTiter-Glo); details: Homo sapiens, MDA-MB-468, 168 h, read-out: 7-day antiproliferative IC50
TIE2 = TIE2 (Homo sapiens, UniProt Q02763); experiment: ICKP radiometric kinase assay; format: biochemical; details: read-out: % AR (% kinase activity remaining)
JNK3 = JNK3 (Homo sapiens, UniProt P53779); experiment: ICKP radiometric kinase assay; format: biochemical; details: read-out: % AR (% kinase activity remaining)
PHK = experiment: ICKP radiometric kinase assay; format: biochemical; details: 1 μM
IGF-1R = IGF-1R (Homo sapiens, UniProt P08069); experiment: ICKP radiometric kinase assay; format: biochemical; details: read-out: % AR (% kinase activity remaining)
NEK6 = NEK6 (Homo sapiens, UniProt Q9HC98); experiment: ICKP radiometric kinase assay; format: biochemical; details: read-out: % AR (% kinase activity remaining)
ABL = ABL (Homo sapiens, UniProt P00519); experiment: ICKP radiometric kinase assay; format: biochemical; details: read-out: % AR (% kinase activity remaining)
ABL, sequence (P00519 whole entry): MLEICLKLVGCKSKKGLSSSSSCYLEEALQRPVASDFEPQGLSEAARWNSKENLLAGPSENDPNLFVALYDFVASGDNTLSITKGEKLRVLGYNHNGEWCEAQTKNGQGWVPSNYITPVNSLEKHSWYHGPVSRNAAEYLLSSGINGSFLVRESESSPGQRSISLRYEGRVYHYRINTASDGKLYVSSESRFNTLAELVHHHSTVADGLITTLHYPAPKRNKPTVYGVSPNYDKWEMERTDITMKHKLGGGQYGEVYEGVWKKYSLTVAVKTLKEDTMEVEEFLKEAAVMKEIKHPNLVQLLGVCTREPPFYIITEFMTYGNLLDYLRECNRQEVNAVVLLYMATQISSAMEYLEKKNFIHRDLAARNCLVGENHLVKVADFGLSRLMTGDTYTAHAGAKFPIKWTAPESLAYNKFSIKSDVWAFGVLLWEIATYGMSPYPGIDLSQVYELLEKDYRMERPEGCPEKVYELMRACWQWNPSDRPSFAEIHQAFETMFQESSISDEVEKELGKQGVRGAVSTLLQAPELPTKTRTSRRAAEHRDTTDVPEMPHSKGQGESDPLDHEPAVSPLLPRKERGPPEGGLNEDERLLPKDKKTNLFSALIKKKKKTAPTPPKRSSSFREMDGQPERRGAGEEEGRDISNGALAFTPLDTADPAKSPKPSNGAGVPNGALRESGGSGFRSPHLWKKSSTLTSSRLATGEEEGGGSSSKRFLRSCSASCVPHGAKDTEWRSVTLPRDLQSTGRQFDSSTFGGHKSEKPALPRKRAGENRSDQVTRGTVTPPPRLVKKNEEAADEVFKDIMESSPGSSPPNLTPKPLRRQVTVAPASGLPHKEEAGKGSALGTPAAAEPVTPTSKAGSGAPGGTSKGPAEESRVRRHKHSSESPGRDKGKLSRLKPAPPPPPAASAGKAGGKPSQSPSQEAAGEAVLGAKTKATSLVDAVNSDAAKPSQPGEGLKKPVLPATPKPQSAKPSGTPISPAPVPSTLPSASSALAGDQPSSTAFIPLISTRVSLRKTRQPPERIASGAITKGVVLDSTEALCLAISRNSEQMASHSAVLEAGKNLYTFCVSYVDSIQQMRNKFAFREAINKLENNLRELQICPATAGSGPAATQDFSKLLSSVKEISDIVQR

BT-549 = experiment: Cell proliferation assay (CellTiter-Glo); details: Homo sapiens
MAPKAP-K2 = MAPKAP-K2 (Homo sapiens, UniProt P49137); experiment: ICKP radiometric kinase assay; format: biochemical; details: read-out: % AR (% kinase activity remaining)
MEKK1 = MEKK1 (Homo sapiens, UniProt Q13233); experiment: ICKP radiometric kinase assay; format: biochemical; details: read-out: % AR (% kinase activity remaining)
AMPK (hum) = experiment: ICKP radiometric kinase assay; format: biochemical, human; details: 1 μM
CLK2 = CLK2 (Homo sapiens, UniProt P49760); experiment: ICKP radiometric kinase assay; format: biochemical; details: read-out: % AR (% kinase activity remaining)
BRSK2 = BRSK2 (Homo sapiens, UniProt Q8IWQ3); experiment: ICKP radiometric kinase assay; format: biochemical; details: read-out: % AR (% kinase activity remaining)
IRR = IRR (Homo sapiens, UniProt P14616); experiment: ICKP radiometric kinase assay; format: biochemical; details: read-out: % AR (% kinase activity remaining)
CDK9-Cyclin T1 = CDK9-Cyclin T1 (Homo sapiens, UniProt P50750); experiment: ICKP radiometric kinase assay; format: biochemical; details: read-out: % AR (% kinase activity remaining)
HIPK2 = HIPK2 (Homo sapiens, UniProt Q9H2X6); experiment: ICKP radiometric kinase assay; format: biochemical; details: read-out: % AR (% kinase activity remaining)
EPH-B2 = EPH-B2 (Homo sapiens, UniProt P29323); experiment: ICKP radiometric kinase assay; format: biochemical; details: read-out: % AR (% kinase activity remaining)
PKD1 = PKD1 (Homo sapiens, UniProt Q15139); experiment: ICKP radiometric kinase assay; format: biochemical; details: read-out: % AR (% kinase activity remaining)
PKD1, sequence (Q15139 whole entry): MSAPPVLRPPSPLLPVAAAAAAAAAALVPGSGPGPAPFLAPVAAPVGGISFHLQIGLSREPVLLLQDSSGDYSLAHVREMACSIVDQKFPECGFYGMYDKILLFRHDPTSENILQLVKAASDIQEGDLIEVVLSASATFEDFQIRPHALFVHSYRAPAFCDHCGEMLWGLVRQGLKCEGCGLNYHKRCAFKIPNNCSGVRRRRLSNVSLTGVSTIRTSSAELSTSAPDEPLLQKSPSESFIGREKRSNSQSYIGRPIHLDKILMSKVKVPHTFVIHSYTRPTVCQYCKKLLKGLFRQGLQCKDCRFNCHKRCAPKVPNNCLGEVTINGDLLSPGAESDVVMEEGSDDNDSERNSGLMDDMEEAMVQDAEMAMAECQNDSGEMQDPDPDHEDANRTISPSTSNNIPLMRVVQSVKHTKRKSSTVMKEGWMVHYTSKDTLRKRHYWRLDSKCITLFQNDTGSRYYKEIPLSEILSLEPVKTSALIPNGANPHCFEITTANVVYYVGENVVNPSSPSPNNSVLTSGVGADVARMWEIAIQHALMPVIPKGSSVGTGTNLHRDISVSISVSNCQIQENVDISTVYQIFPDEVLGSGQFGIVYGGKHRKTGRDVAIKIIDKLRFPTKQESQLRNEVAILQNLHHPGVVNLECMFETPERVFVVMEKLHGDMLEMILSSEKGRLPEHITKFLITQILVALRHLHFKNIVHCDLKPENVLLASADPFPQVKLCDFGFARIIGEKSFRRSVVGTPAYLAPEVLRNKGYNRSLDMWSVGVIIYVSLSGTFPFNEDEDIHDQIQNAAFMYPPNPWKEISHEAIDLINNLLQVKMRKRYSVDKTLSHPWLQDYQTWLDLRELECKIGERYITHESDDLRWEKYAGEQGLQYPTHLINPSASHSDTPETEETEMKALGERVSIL

CDK2-Cyclin A = CDK2-Cyclin A (Homo sapiens, UniProt P24941); experiment: ICKP radiometric kinase assay; format: biochemical; details: read-out: % AR (% kinase activity remaining)
VEGFR1 = VEGFR1 (Homo sapiens, UniProt P17948); experiment: ICKP radiometric kinase assay; format: biochemical; details: read-out: % AR (% kinase activity remaining)
mTOR = mTOR (Homo sapiens, UniProt P42345); experiment: Z’-LYTE enzymatic assay; details: Z’-LYTE assay at [ATP]=apparent Km; read-out: Biochemical IC50 mTOR
MNK2 = MNK2 (Homo sapiens, UniProt Q9HBH9); experiment: ICKP radiometric kinase assay; format: biochemical; details: read-out: % AR (% kinase activity remaining)
Aurora B = Aurora B (Homo sapiens, UniProt Q96GD4); experiment: ICKP radiometric kinase assay; format: biochemical; details: read-out: % AR (% kinase activity remaining)
CAMKK beta = CAMKK beta (Homo sapiens, UniProt Q96RR4); experiment: ICKP radiometric kinase assay; format: biochemical; details: read-out: % AR (% kinase activity remaining)
CAMKK beta, sequence (Q96RR4 whole entry): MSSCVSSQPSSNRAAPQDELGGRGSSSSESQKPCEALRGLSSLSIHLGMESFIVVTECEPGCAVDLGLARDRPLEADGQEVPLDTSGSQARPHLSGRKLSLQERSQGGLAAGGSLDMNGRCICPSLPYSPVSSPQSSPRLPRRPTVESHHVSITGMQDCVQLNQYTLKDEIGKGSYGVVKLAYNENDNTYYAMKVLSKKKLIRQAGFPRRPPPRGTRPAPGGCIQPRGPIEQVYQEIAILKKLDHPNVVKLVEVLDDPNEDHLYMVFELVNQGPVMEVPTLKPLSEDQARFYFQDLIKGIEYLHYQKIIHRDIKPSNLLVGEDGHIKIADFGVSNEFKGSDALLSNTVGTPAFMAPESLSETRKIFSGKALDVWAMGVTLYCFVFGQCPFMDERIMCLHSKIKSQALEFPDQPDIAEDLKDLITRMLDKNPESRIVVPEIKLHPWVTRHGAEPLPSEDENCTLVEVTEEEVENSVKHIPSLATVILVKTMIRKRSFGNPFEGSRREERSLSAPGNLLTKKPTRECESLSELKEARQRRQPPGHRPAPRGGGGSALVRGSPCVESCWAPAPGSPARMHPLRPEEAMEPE

[2] = HCC70, 72 h, read-out: 3-day antiproliferative IC50
[3] = HCC70, 168 h, read-out: 7-day antiproliferative IC50
[4] = BT-549, 72 h, read-out: 3-day antiproliferative IC50
[5] = BT-549, 168 h, read-out: 7-day antiproliferative IC50

MELK, sequence (Q14680 whole entry): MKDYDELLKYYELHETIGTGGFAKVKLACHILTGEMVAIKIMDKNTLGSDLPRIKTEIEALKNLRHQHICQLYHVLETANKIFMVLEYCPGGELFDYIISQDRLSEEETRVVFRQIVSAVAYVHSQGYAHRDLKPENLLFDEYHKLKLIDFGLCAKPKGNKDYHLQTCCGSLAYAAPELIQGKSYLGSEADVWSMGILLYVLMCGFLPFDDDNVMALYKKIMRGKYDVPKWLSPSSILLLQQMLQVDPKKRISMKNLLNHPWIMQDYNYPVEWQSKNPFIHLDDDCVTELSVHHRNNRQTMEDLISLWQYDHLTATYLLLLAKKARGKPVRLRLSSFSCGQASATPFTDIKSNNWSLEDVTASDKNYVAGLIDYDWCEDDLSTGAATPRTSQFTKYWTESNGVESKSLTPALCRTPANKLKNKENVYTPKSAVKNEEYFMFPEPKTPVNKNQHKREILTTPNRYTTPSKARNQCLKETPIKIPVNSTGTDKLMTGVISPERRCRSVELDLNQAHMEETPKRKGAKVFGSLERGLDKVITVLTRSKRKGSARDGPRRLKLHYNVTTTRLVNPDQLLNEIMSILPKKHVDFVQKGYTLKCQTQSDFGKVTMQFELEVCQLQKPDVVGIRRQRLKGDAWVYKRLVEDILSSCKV

CN(C)C[C@H]1CC[C@H](N2C(=O)NCc3cnc4ccc(-c5cc(Cl)c(O)c(Cl)c5)cc4c32)CC1 [HTH-01-091, 9-(3,5-dichloro-4-hydroxyphenyl)-1-(trans-4-((dimethylamino)methyl)cyclohexyl)-3,4-dihydropyrimido[5,4 c]quinolin-2(1H)-one]
remaining activity at 1 µM (MELK): 13%
pIC50 (MELK; radioactive filter-binding assay provided by the ICKP, read-out: Enzymatic IC50 MELK): 7.82
remaining activity at 1 µM (MKK2): 75%
remaining activity at 1 µM (MLK1): 35%
remaining activity at 1 µM (MAPKAP-K3): 89%
remaining activity at 1 µM (NUAK1): 66%
remaining activity at 1 µM (MST4): 96%
remaining activity at 1 µM (TAO1): 18%
remaining activity at 1 µM (MKK6): 99%
remaining activity at 1 µM (PKB alpha): 101%
remaining activity at 1 µM (MARK4): 95%
remaining activity at 1 µM (PRK2): 77%
remaining activity at 1 µM (EIF2AK3): 114%
remaining activity at 1 µM (MARK3): 94%
remaining activity at 1 µM (CK1 delta): 36%
remaining activity at 1 µM (MAP4K5): 32%
pIC50 (HCC70; [2]): 5.06
pIC50 (HCC70; [3]): 5.61
remaining activity at 1 µM (PLK1): 95%
remaining activity at 1 µM (JNK2): 100%
pIC50 [1]: 4.97
remaining activity at 1 µM (TIE2): 71%
remaining activity at 1 µM (JNK3): 101%
% AR (% kinase activity remaining) (PHK): 74%
remaining activity at 1 µM (IGF-1R): 92%
remaining activity at 1 µM (NEK6): 95%
remaining activity at 1 µM (ABL): 70%
pIC50 (BT-549; [4]): 5.21
pIC50 (BT-549; [5]): 5.55
remaining activity at 1 µM (MAPKAP-K2): 98%
remaining activity at 1 µM (MEKK1): 111%
% AR (% kinase activity remaining) (AMPK (hum)): 34%
remaining activity at 1 µM (CLK2): 11%
remaining activity at 1 µM (BRSK2): 125%
remaining activity at 1 µM (IRR): 79%
remaining activity at 1 µM (CDK9-Cyclin T1): 92%
remaining activity at 1 µM (HIPK2): 13%
remaining activity at 1 µM (EPH-B2): 70%
remaining activity at 1 µM (PKD1): 79%
remaining activity at 1 µM (CDK2-Cyclin A): 67%
remaining activity at 1 µM (VEGFR1): 43%
pIC50 (mTOR): 6.20
remaining activity at 1 µM (MNK2): 103%
remaining activity at 1 µM (Aurora B): 35%
remaining activity at 1 µM (CAMKK beta): 91%

CC(=O)c1cnc2ccc(-c3cc(Cl)c(O)c(Cl)c3)nc2c1N[C@H]1CC[C@H](CN(C)C)CC1 [OTSSP167]
remaining activity at 1 µM (MELK): 6%
remaining activity at 1 µM (MKK2): 10%
remaining activity at 1 µM (MLK1): 1%
remaining activity at 1 µM (MAPKAP-K3): 94%
remaining activity at 1 µM (NUAK1): 0%
remaining activity at 1 µM (MST4): 5%
remaining activity at 1 µM (TAO1): 3%
remaining activity at 1 µM (MKK6): 80%
remaining activity at 1 µM (PKB alpha): 28%
remaining activity at 1 µM (MARK4): 14%
remaining activity at 1 µM (PRK2): 2%
remaining activity at 1 µM (EIF2AK3): 7%
remaining activity at 1 µM (MARK3): 13%
remaining activity at 1 µM (CK1 delta): 6%
remaining activity at 1 µM (MAP4K5): 3%
pIC50 (HCC70; [2]): 7.47
pIC50 (HCC70; [3]): 7.68
remaining activity at 1 µM (PLK1): 3%
remaining activity at 1 µM (JNK2): 16%
pIC50 [1]: 7.48
remaining activity at 1 µM (TIE2): 3%
remaining activity at 1 µM (JNK3): 13%
% AR (% kinase activity remaining) (PHK): 3%
remaining activity at 1 µM (IGF-1R): 4%
remaining activity at 1 µM (NEK6): 92%
remaining activity at 1 µM (ABL): 1%
pIC50 (BT-549; [4]): 7.68
pIC50 (BT-549; [5]): 8.05
remaining activity at 1 µM (MAPKAP-K2): 14%
remaining activity at 1 µM (MEKK1): 96%
% AR (% kinase activity remaining) (AMPK (hum)): 1%
remaining activity at 1 µM (CLK2): 0%
remaining activity at 1 µM (BRSK2): 2%
remaining activity at 1 µM (IRR): 6%
remaining activity at 1 µM (CDK9-Cyclin T1): 4%
remaining activity at 1 µM (HIPK2): 2%
remaining activity at 1 µM (EPH-B2): 1%
remaining activity at 1 µM (PKD1): 6%
remaining activity at 1 µM (CDK2-Cyclin A): 2%
remaining activity at 1 µM (VEGFR1): 1%
pIC50 (mTOR): 7.45
remaining activity at 1 µM (MNK2): 13%
remaining activity at 1 µM (Aurora B): 14%
remaining activity at 1 µM (CAMKK beta): 2%
